Source: US20040086904A1, “Screening assay for cotranslational translocation interfering compounds” (priority 2001, published 2004)

Tests used:
E-Selectin = target: T1, E-Selectin (Homo sapiens, UniProt P16581); assay: Cell-free translation/translocation assay, E-Selectin; assay type: biochemical; details: reticulocyte lysate with dog pancreatic microsomes, at the concentrations tested
T1 construct: Full length cDNAs of the adhesion molecules VCAM-1, ICAM-1 and E-Selectin are transcribed and translated; host or cells: cell-free: coupled TNT reticulocyte lysate (Promega) with dog pancreatic microsomes
T1 sequence (P16581 22-610): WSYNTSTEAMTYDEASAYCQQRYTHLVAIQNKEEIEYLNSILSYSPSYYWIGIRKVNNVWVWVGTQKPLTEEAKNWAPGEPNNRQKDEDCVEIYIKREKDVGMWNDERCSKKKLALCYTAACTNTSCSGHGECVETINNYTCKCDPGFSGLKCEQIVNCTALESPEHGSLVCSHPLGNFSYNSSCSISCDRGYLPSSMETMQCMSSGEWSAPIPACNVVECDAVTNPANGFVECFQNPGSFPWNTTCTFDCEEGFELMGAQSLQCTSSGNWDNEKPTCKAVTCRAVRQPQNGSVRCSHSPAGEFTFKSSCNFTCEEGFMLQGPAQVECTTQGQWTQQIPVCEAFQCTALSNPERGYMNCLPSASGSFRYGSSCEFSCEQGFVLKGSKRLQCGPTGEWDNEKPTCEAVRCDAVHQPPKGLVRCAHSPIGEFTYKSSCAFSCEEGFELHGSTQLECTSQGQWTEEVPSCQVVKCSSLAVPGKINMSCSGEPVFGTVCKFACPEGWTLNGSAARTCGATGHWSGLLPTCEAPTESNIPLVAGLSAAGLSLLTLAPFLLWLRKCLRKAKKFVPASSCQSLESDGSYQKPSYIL
Description: Proteins are radioactively labelled and visualised by autoradlography.

SEAP = assay: SP-SEAP assay, secretion of SEAP into the medium; assay type: cell-based, human; details: transiently transfected cells, increasing concentrations
Procedure: Cell Culture and Transient Transfections HEK293 cells are maintained in Dulbeccos' modified Eagle's medium (DMEM, Gibco-BRL), supplemented with 10% heat-inactivated fetal calf serum (FCS, Bio-Whittaker) and 100 Units/ml each of penicillin (BC) and streptomycin (Gibco-BRL) at 37° in a 5% humidified CO2 incubator. HUVEC cells are cultured in endothelial cell basal medium (EBM, Clonetics Corp.) supplemented with 10% FCS, 5×10^−4 M dibutyryl cAMP (Sigma), 1 μg/ml hydrocortisone (Sigma) and 10 ng/ml human EGF (Boehringer) at 37° in a 5% humidified CO2 incubator. VCAM-1 production is stimulated by incubation with 100U/ml TNF-α for ca. 8 hours. For transient transfection, HEK293 cells are seeded into 6-well or 24-well cell culture dishes at a density of 6×10^5 cells/well or 1.5×10^5 cells/well, respectively, the day prior to transfection and grown to 50-70% confluency. […]
Human placental SEAP levels in cell supernatants are determined using either a fluorescence-based assay or an assay that measures light absorbance at 405 nm accompanying hydrolysis of pNPP according to the method described (Berger et al., 1988). […] 20 μl of 120 mM pNPP in 1x SEAP buffer prewarmed to 37° is added and the change in absorbance at 37° is plotted. […] For determination of SEAP levels by a fluorescence-based assay the Atto Phos AP Fluorescent Substrate Sysem (Promega) is used according to the manufacturer's instructions. […]

[1] = test system: IL-12p40 SP-SEAP fusion construct; assay: SP-SEAP assay, secretion of SEAP into the medium; assay type: cell-based; details: transient overexpression in mammalian cells, increasing concentrations
Procedure: (§1) Cell Culture and Transient Transfections HEK293 cells are maintained in Dulbeccos' modified Eagle's medium (DMEM, Gibco-BRL), supplemented with 10% heat-inactivated fetal calf serum (FCS, Bio-Whittaker) and 100 Units/ml each of penicillin (BC) and streptomycin (Gibco-BRL) at 37° in a 5% humidified CO2 incubator. HUVEC cells are cultured in endothelial cell basal medium (EBM, Clonetics Corp.) supplemented with 10% FCS, 5×10^−4 M dibutyryl cAMP (Sigma), 1 μg/ml hydrocortisone (Sigma) and 10 ng/ml human EGF (Boehringer) at 37° in a 5% humidified CO2 incubator. VCAM-1 production is stimulated by incubation with 100U/ml TNF-α for ca. 8 hours. For transient transfection, HEK293 cells are seeded into 6-well or 24-well cell culture dishes at a density of 6×10^5 cells/well or 1.5×10^5 cells/well, respectively, the day prior to transfection and grown to 50-70% confluency. Cells are transfected with 2 μg or 1 μg of plasmid DNA, respectively, using the SuperFect reagent (Qiagen) according to the supplier's recommendations. Cells are incubated either without or with addition of a candidate compound, respectively, at concentrations indicated for ca. 24 to 48 hours. For proteasome inhibition experiments Lactacystin (Calbiochem) is added at a final concentration of 5 μM alone or together with a candidate compound 5 hours post-transfection, respectively.
(§2) Human placental SEAP levels in cell supernatants are determined using either a fluorescence-based assay or an assay that measures light absorbance at 405 nm accompanying hydrolysis of pNPP according to the method described (Berger et al., 1988). Briefly, a 500 μl aliquot of medium is removed from the culture dish, clarified for 1 min at 14,000×g and heated for 5 minutes at 65°. An aliquot of medium (10 μl-100 μl) is adjusted to 1x SEAP buffer (1.0 M diethanolamine, pH 9.8, 0.5 mM MgCl2, 10 mM L-homoarginine) in a final volume of 200 μl in a 96-well flat bottom culture dish (Nunc) and prewarmed to 37° for 10 min. 20 μl of 120 mM pNPP in 1x SEAP buffer prewarmed to 37° is added and the change in absorbance at 37° is plotted. Heating step and inclusion of L-homoarginine in the assay buffer inhibit any endogenous phophatase activity. For determination of SEAP levels by a fluorescence-based assay the Atto Phos AP Fluorescent Substrate Sysem (Promega) is used according to the manufacturer's instructions.
(§3) To further validate the novel assay system claimed in the present invention we generated SP-SEAP fusion constructs similarily to the method as described in example 1, but using the SP of other protein targets playing critical roles in various disease processes and tested their functionality by transient overexpression in mammalian cells in the absence or presence of increasing concentrations of compound CP as described (FIG. 7). […]

[2] = test system: IL4 SP-SEAP fusion construct; assay: SP-SEAP assay, secretion of SEAP into the medium; assay type: cell-based; details: transient overexpression in mammalian cells, increasing concentrations
Procedure: as §1, §2, §3

[3] = test system: MCP-1 SP-SEAP fusion construct; assay: SP-SEAP assay, secretion of SEAP into the medium; assay type: cell-based; details: transient overexpression in mammalian cells, increasing concentrations
Procedure: as §1, §2, §3

VEGF SP-SEAP construct = assay: SP-SEAP assay, secretion of SEAP into the medium; assay type: cell-based; details: transient overexpression in mammalian cells, increasing concentrations, dose dependent, compared to VCAM-1 SP-SEAP
Procedure: as §1, §2, §3

CCCCC(C)CC1NC(=O)C(Cc2cn(OC)c3ccccc23)N(C)C(=O)C(CC(C)C)NC(=O)C(CC(C)C)N(C)C(=O)C(CC(C)CCCC)NC(=O)C(CCC(=O)OCCC)OC(=O)C(C)N(C)C1=O (stereo not drawn) [CP]
translocation of E-Selectin (E-Selectin): resistant
sensitivity of SEAP secretion to the compound (SEAP): compound-insensitive
sensitivity of SEAP secretion to the compound [1]: insensitive
sensitivity of SEAP secretion to the compound [2]: insensitive
sensitivity of SEAP secretion to the compound [3]: insensitive
sensitivity of SEAP secretion to the compound (VEGF SP-SEAP construct): sensitive
